For one experiment, the target named is MCL1 protein (Homo sapiens (Human), UniProt Q07820). The experiment can be described thus: PIxEL: protein-protein interaction in permeabilized cells by ELISA (Assay 5). In kind it is cell-based. Conditions: permeabilized RKO cells, Biotin-BIM peptide 0.2 μM, serum free; median. The procedure: PI×EL: Protein-Protein Interaction in Permeabilized Cells by ELISA
Most MCL1 protein molecules are localized at the mitochondria outer membrane and sequester pro-apoptotic proteins through binding of their BCL2 homology domain 3 (BH3 domain). MEB buffer (150 mM mannitol, 10 mM HEPES pH 7.5, 50 mM KCl, 20 μM EDTA, 20 μM EGTA, 5 mM potassium succinate, 0.1% protease-free BSA (SIGMA) with low dose digitonin (0.002%) permeabilizes plasma membrane while leaves live mitochondria, where MCL1 maintains its native localization and conformation. Unlike biophysical assays (e.g. TR-FRET) that use truncated recombinant MCL1 protein, this assay uses full length endogenous MCL1 protein at mitochondria outer membrane. It measures the interaction between MCL1 protein and biotinylated BIM BH3 peptide. Compounds can compete with BIM BH3 peptide to bind to MCL1 protein. This serum free assay measures the affinity between MCL1 protein and compound in permeabilized cells, therefore it is not affected by serum binding and cell permeability, and can measure the intrinsic compound affinity.
On day 1, RKO colon cancer cell line cells were plated at 0.8 million cells/ml, 100 μl/well in 96-well flat bottom TC plates (Corning). MCL1 antibody (Santa Cruz sc-12756) were diluted at 200 fold (final concentration 1 μg/ml) in carbonate buffer (Thermo Fisher Scientific, pH 9.6), and 50 μl of diluted antibody was added to each well of high bind ELISA plates (SARSTEDT). Each plate was tapped to make sure liquid covering entire bottom of wells and incubate at 37° C. overnight.
On the second day, MCL1 antibody was washed from ELISA plate. 250 μl Odyssey® Blocking Buffer (PBS) (Li-Cor) was added to each well, incubated at room temperature for at least 1 hour, then washed once with 250 μl 1×PBST. Plates with RKO cells were gently washed once with 100 μl/well PBS, once with 100 μl/well MEB buffer without digitonin, then 100 μl of MEB buffer with 0.002% digitonin was gently added to each well. Compounds were added with HP Tecan compound dispenser in 3-fold dilution series, highest dose 30 μM, 10-dose per compound in quadruplicates. Biotin-BIM peptide (synthesized by 21st Century) was added with HP Tecan compound dispenser at 0.2 μM immediately after the addition of compounds. Plates were rocked for 1 hour at room temperature. Then MEB buffer was aspirated and 50 μl of CHAPS buffer (50 mM Tris-Cl, pH 7.4, 150 mM NaCl, 1% CHAPS, 1 mM EDTA, 1 mM EGTA, cOmplete protease inhibitors (Roche), PhosSTOP (Roche)) was added to each well. Plates were rocked for 1 hour at 4° C., then 45 μl cell lysate from each well were transferred to ELISA plates coated with MCL1 antibody. Plates were incubated overnight in the cold room with rocking.
On the third day, ELISA plates were washed once with 250 μl 1×PBST. Streptavidin-poly-HRP (Thermo Fisher Scientific) was diluted to 20 ng/ml in Odyssey blocking buffer plus 0.05% Triton-100, and 100 μl was added to each well of the ELISA plate. Plates were incubated at room temperature for 1 hour with rocking, then washed with 100 μL 1×PBST for 3 times. Each SuperSignal ELISA Femto Maximum Sensitivity substrate was added to a 50-ml tube and mixed, then 100 μl of mixed substrate was added to each well. Plates were shaken for 1 minute then luminescence was measured by Envision plate reader […]. Signal of each well were normalized by no-compound control and no-cell control. IC50 was calculated using Graphic Pad PRISM software.
(In general: ELISA stands for enzyme-linked immunosorbent assay.)

In the next experiment the target is MCL-1 (Homo sapiens (Human), UniProt Q07820, K194A/K197A/R201A). In words: Protein-compound interaction assay (SPR assay, Assay 8). In kind it is binding. Conditions: immobilized MBP-MCL-1, 25° C., geometric mean. The source says:
Assay 8 Protein-Compound Interaction Assay (SPR Assay)
The ability of the compounds described in this invention to bind to MCL-1 may be determined using surface plasmon resonance (SPR). This allows for the quantification of binding in terms of the equilibrium dissociation constant (KD [M]), as well as association and dissociation rate constants (kon [1/M 1/s] and koff [1/s], respectively). The measurements may be performed using Biacore® T200 or Biacore® S200 instruments (GE Healthcare).
For SPR measurements, recombinant MCL-1 (amino acids 173-321, N-terminal fused to Maltose Binding Protein (MBP) (SEQ ID 1) purchased from Beryllium (Bedford, Mass., USA)) was immobilized using standard amine coupling (Johnsson B et al, Anal Biochem. 1991 Nov. 1; 198(2):268-77). Briefly, carboxymethylated dextran biosensor chips (Series S Sensor Chip CMS, GE Healthcare) were activated with 1-ethyl-3-(3-dimethylaminopropyl)-carbodiimide hydrochloride (EDC) and N-hydroxysuccinimide (NHS) according to the supplier's instructions. MBP-MCL-1 was diluted in 1×PBS-P+ (GE Healthcare) and injected on the activated chip surface. Subsequently, a solution of 1 M ethanolamine-HCl (GE Healthcare) was injected to block unreacted groups, resulting in approximately 400-2500 response units (RU) of immobilized protein. A reference surface was generated by treatment with NHS-EDC and ethanolamine-HCl. Compounds were dissolved in 100% dimethylsulfoxide (DMSO) to a concentration of 10 mM and subsequently diluted in running buffer (1×PBS-P+ (GE Healthcare) [generated from PBS-P+ Buffer 10× (GE Healthcare): 0.2 M phosphate buffer with 27 mM KCl, 1.37 M NaCl and 0.5% Surfactant P20 (Tween 20).], 1% v/v DMSO). For SPR binding-measurements, serial dilutions of compound (eight dilution steps, typically ranging from 0.2 nM up to 1 μM) were injected over immobilized protein. […] Compounds were injected for 60 s followed by a dissociation time of up to 1000 s.
The double-referenced sensorgrams were fit to a simple reversible Langmuir 1:1 reaction mechanism as implemented in the Biacore® T200 and S200 evaluation software (T200 evaluation software version 2.0 and S200 evaluation software version 1.0, GE Healthcare).
In general terms: Surface plasmon resonance follows binding to a sensor surface in real time, without labels.

Counter-ions that a name gives are not always drawn.

One may read the IC50 as the midpoint of a concentration-inhibition curve. One may read the Kd as a measure of binding affinity in units of concentration. Low readings indicate tighter binding, high ones weaker binding. A word on the koff: it is the first-order rate constant of dissociation. A lower koff goes with slow dissociation. By kon is commonly meant a measure of how fast the partners come together. Read a high kon as faster complex formation.

Chain of MCL-1 (Q07820 whole entry K194A/K197A/R201A, looked up): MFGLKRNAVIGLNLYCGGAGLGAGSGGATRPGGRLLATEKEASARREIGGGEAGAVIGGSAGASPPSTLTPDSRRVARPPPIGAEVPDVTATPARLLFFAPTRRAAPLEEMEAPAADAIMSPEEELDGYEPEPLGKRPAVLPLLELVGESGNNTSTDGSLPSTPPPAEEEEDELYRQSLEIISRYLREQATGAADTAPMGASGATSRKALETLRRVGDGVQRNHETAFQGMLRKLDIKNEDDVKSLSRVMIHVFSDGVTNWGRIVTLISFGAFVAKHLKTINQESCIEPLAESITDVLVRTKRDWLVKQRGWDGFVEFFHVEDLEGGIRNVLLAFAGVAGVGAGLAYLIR
Chain of MCL1 protein (Q07820 whole entry, the tested form may be a part): as the sequence (Q07820 whole entry K194A/K197A/R201A, looked up) above, with A194K, A197K, A201R counted along it

At MCL1 protein, `Cc1c2c(nn1C)C(CCN1CCOCC1)N(C)S(=O)(=O)CCCn1c(C(=O)O)c(CCCOc3cccc4cc(F)ccc34)c3ccc(Cl)c-2c31` (racemic) [Example 48, (rac)-4-chloro-7-{3-[(6-fluoro-1-naphthyl)oxy]propyl}-2,3,14-trimethyl-15-(rac)-[2-(morpholin-4-yl)ethyl]-11,12,14,15-tetrahydro-2H,10H-pyrazolo[3′,4′:4,5][1,2,8]thiadiazacycloundecino[6,7,8-hi]indole-8-carboxylic acid 13,13-dioxide (Mixture of Stereoisomers)] returned an IC50 of 29.9 nM. This counts as double-digit nanomolar. As for `CCc1c2c(nn1C)CN(C1CC1)S(=O)(=O)CCCn1c(C(=O)O)c(CCCOc3cccc4cc(F)ccc34)c3ccc(Cl)c-2c31` (racemic) [Example 53, (rac)-4-chloro-14-cyclopropyl-3-ethyl-7-{3-[(6-fluoro-1-naphthyl)oxy]propyl}-2-methyl-11,12,14,15-tetrahydro-2H,10H-pyrazolo[3′,4′:4,5][1,2,8]thiadiazacycloundecino[6,7,8-hi]indole-8-carboxylic acid 13,13-dioxide], half-maximal inhibition against MCL1 protein (IC50) required 329 nM. Regarding `CCc1c2c(nn1C)CN(CC)S(=O)(=O)CCCn1c(C(=O)O)c(CCCOc3cccc4cc(F)ccc34)c3ccc(Cl)c-2c31` (racemic) [Example 56, (rac)-4-chloro-3,14-diethyl-7-{3-[(6-fluoro-1-naphthyl)oxy]propyl}-2-methyl-11,12,14,15-tetrahydro-2H,10H-pyrazolo[3′,4′:4,5][1,2,8]thiadiazacycloundecino[6,7,8-hi]indole-8-carboxylic acid 13,13-dioxide], the IC50 on MCL1 protein was 145 nM. Regarding `CCc1c2c(nn1C)C(CCN1CCOCC1)N(C)S(=O)(=O)CCCn1c(C(=O)O)c(CCCOc3cccc4cc(F)ccc34)c3ccc(Cl)c-2c31` (racemic) [Example 73, (rac)-(4-chloro-3-ethyl-7-{3-[(6-fluoronaphthalen-1-yl)oxy]propyl}-2,14-dimethyl-15-[2-(morpholin-4-yl)ethyl]-13,13-dioxo-10,11,12,13,14,15-hexahydro-2H-13lambda^6-pyrazolo[3′,4′:4,5][1,2,8]thiadiazacycloundecino[6,7,8-hi]indole-8-carboxylic acid (Racemate 1)], half-maximal inhibition on MCL1 protein (IC50) required 33.1 nM. The same measure, in the same setting: next, `Cc1c2c(nn1C)CNS(=O)(=O)CCCn1c(C(=O)O)c(CCCOc3cccc4cc(F)ccc34)c3ccc(Cl)c-2c31` (single isomer, unassigned; enantiomer 1) [Example 51, 4-chloro-7-{3-[(6-fluoronaphthalen-1-yl)oxy]propyl}-2,3-dimethyl-13,13-dioxo-10,11,12,13,14,15-hexahydro-2H-13lambda^6-pyrazolo[3′,4′:4,5][1,2,8]thiadiazacycloundecino[6,7,8-hi]indole-8-carboxylic acid (Enantiomer 1)]: 458 nM; `CCc1c2c(nn1C)CN(C1CC1)S(=O)(=O)CCCn1c(C(=O)O)c(CCCOc3cccc4cc(F)ccc34)c3ccc(Cl)c-2c31` (single isomer, unassigned; enantiomer 1) [Example 54, (−)-4-chloro-14-cyclopropyl-3-ethyl-7-{3-[(6-fluoronaphthalen-1-yl)oxy]propyl}-2-methyl-13,13-dioxo-10,11,12,13,14,15-hexahydro-2H-13lambda^6-pyrazolo[3′,4′:4,5][1,2,8]thiadiazacycloundecino[6,7,8-hi]indole-8-carboxylic acid N-ethylethanamine Salt (Enantiomer 1)]: 360 nM. Still for that read-out and setting: next, `CCc1c2c(nn1C)CN(CC)S(=O)(=O)CCCn1c(C(=O)O)c(CCCOc3cccc4cc(F)ccc34)c3ccc(Cl)c-2c31` (single isomer, unassigned; enantiomer 1) [Example 57, (+)-4-chloro-3,14-diethyl-7-{3-[(6-fluoronaphthalen-1-yl)oxy]propyl}-2-methyl-13,13-dioxo-10,11,12,13,14,15-hexahydro-2H-13lambda^6-pyrazolo[3′,4′:4,5][1,2,8]thiadiazacycloundecino[6,7,8-hi]indole-8-carboxylic acid N-ethylethanamine Salt (Enantiomer 1)]: 74.8 nM; `Cc1c2c(nn1C)C(CCN1CCOCC1)N(C)S(=O)(=O)CCCn1c(C(=O)O)c(CCCOc3cccc4cc(F)ccc34)c3ccc(Cl)c-2c31` (single isomer, unassigned; enantiomer 2) [Example 67, 4-chloro-7-{3-[(6-fluoronaphthalen-1-yl)oxy]propyl}-2,3,14-trimethyl-15-[2-(morpholin-4-yl)ethyl]-13,13-dioxo-10,11,12,13,14,15-hexahydro-2H-13lambda^6-pyrazolo[3′,4′:4,5][1,2,8]thiadiazacycloundecino[6,7,8-hi]indole-8-carboxylic acid (Enantiomer 2)]: 8.74 nM. On to `CCNCC.CCc1c2c(nn1C)C(CCN1CCOCC1)N(C)S(=O)(=O)CCCn1c(C(=O)O)c(CCCOc3cccc4cc(F)ccc34)c3ccc(Cl)c-2c31` (single isomer, unassigned; enantiomer 2) [Example 76, 4-chloro-3-ethyl-7-{3-[(6-fluoronaphthalen-1-yl)oxy]propyl}-2,14-dimethyl-15-[2-(morpholin-4-yl)ethyl]-13,13-dioxo-10,11,12,13,14,15-hexahydro-2H-13lambda^6-pyrazolo[3′,4′:4,5][1,2,8]thiadiazacycloundecino[6,7,8-hi]indole-8-carboxylic acid-N-ethylethanamine Salt (Enantiomer 2)], for which, at MCL-1, the Kd was 0.34 nM, the “koff” value worked out at 0.0025 s⁻¹ and the “kon” value came out at 7.3e+06 M⁻¹ s⁻¹.

Turning to `CCc1c2c(nn1C)C(CCC1CCOCC1)N(C)S(=O)(=O)CCCn1c(C(=O)O)c(CCCOc3cccc4cc(F)ccc34)c3ccc(Cl)c-2c31` (single isomer, unassigned; enantiomer 3) [Example 63, (+)-4-chloro-3-ethyl-7-{3-[(6-fluoronaphthalen-1-yl)oxy]propyl}-2,14-dimethyl-15-[2-(oxan-4-yl)ethyl]-13,13-dioxo-10,11,12,13,14,15-hexahydro-2H-13lambda^6-pyrazolo[3′,4′:4,5][1,2,8]thiadiazacycloundecino[6,7,8-hi]indole-8-carboxylic acid (Enantiomer 3)], the half-inhibitory concentration (IC50) on MCL1 protein was 22 nM.

These data come from patent US11401278B2, “Macrocyclic indole derivatives” (The Broad Institute, Inc., priority 2017, dated 2022).
